What was measured:
Test in all cases: whole-cell patch clamp
Type in all cases: cell-based
α3β2γ2 GABAA receptor = details: inhibition of current by EC30 GABA; -60 mV, pH 7.3, 22-25 °C; called competitive
α1β2 GABAA receptor [1] = details: EC30 GABA, TM2 6' position, -60 mV, pH 7.3
α1β2 GABAA receptor [2] = details: EC30 GABA (0.5 μM), -60 mV, pH 7.3
α6β2γ2 GABAA receptor = details: EC30 GABA (1 μM), -60 mV, pH 7.3, biphasic effect

O=C1Nc2ccc(Cl)cc2[C@@](C#CC2CC2)(C(F)(F)F)O1 [Efavirenz]
IC50 (α3β2γ2 GABAA receptor): 14 ± 6.3 µM
% of control end-application current at 30 μM (α1β2 GABAA receptor [1]): 95 ± 18%
% of control end-application current at 30 μM (α1β2 GABAA receptor [2]): 1.6 ± 1.7%
% of control end-application current at 30 μM (α6β2γ2 GABAA receptor): 46 ± 6.1%
